According to PMC12616515, “Thermostable Bacterial Esterases From Lipase Family 1.5 Degrade Compostable Polyesters PBAT and PBSA” (MicrobiologyOpen, 2025):

Assays:
[1] = biological target: T1, Cl_EstA (Clostridium botulinum, UniProt A5I055)
T1 construct: gene lipA

[2] = biological target: T2, Tl_Est64 (Thermosyntropha lipolytica, UniProt A0A1M5LUW5); assay: pNP release, absorbance […] nm; assay type: biochemical
T2 construct: gene SAMN02745221_00755
T2 sequence (A0A1M5LUW5 29-416): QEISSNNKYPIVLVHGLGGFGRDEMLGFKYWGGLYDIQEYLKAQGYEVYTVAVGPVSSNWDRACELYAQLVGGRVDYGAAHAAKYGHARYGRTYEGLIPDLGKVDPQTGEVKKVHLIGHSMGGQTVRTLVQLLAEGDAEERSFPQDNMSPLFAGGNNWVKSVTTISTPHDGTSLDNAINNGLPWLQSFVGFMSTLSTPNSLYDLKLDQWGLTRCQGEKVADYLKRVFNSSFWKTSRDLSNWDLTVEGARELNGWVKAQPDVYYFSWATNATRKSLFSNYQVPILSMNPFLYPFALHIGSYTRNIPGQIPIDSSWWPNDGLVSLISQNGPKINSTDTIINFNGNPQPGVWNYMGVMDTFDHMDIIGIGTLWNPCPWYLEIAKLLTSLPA

[3] = biological target: T3, Dt_Est (Desulfurispora thermophila, UniProt Z9TUI6NBX6); assay: pNP release, absorbance […] nm; assay type: biochemical
T3 sequence (Z9TUI6NBX6 32-423): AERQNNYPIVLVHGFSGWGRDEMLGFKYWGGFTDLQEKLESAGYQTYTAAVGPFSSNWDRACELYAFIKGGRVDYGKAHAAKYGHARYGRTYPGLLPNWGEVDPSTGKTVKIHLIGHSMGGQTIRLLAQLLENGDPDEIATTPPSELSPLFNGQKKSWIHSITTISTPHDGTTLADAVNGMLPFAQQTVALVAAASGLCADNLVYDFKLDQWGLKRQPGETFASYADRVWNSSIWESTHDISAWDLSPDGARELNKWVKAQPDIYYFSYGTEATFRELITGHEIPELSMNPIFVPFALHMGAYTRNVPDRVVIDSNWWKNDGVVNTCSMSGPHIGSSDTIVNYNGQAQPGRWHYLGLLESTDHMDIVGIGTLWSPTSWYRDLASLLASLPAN

T1 sequence (A5I055 1-480): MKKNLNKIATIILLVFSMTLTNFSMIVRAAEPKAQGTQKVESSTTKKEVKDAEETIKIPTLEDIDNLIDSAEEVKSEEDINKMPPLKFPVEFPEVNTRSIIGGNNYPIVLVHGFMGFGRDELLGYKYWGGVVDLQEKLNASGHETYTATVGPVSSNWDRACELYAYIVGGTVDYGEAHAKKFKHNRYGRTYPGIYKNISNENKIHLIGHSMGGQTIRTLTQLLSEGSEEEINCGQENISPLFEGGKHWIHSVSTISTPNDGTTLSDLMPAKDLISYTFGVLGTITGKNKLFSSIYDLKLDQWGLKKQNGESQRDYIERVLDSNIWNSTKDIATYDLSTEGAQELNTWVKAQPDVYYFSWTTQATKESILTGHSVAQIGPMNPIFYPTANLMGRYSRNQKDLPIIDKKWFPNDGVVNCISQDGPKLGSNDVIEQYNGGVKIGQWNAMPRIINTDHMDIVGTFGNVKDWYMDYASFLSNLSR

SMILES | pNP release, absorbance 405 nm [2] | further results
CC(=O)Oc1ccc([N+](=O)[O-])cc1 [pNP acetate] | – | pNP release, absorbance 405 nm [1]: except Cl_EstA, which had the best activity with pNP acetate
CCCC(=O)Oc1ccc([N+](=O)[O-])cc1 [pNP butyrate] | Tl_Est64 showed the highest overall activity with the substrates pNP butyrate and pNP valerate | –
CCCCCCCC(=O)Oc1ccc([N+](=O)[O-])cc1 [pNP octanoate] | – | pNP release, absorbance 405 nm [3]: Dt_Est showed the highest activity with pNP octanoate
CCCCC(=O)Oc1ccc([N+](=O)[O-])cc1 [pNP valerate] | Tl_Est64 showed the highest overall activity with the substrates pNP butyrate and pNP valerate | –
